In brackets after ≈: the same amount, converted by molar mass. Entries after “also recorded” stand apart in the source; their conditions may differ. Structures can show the parent of a compound that is named as a salt.
Columns and labels:
[1] = target: T1, gelatinase B from neutrophils (Homo sapiens, UniProt P14780); test: gelatinase microtiter plate assay (digestion of biotinylated gelatin, inhibition factor); assay type: biochemical; parameters: endogenous in cells; host or cells: human neutrophils stimulated with lipopolysaccharide; conditioned medium; details: crude neutrophil gelatinase B, '-' = no inhibitory activity
T1 sequence (P14780 94-707): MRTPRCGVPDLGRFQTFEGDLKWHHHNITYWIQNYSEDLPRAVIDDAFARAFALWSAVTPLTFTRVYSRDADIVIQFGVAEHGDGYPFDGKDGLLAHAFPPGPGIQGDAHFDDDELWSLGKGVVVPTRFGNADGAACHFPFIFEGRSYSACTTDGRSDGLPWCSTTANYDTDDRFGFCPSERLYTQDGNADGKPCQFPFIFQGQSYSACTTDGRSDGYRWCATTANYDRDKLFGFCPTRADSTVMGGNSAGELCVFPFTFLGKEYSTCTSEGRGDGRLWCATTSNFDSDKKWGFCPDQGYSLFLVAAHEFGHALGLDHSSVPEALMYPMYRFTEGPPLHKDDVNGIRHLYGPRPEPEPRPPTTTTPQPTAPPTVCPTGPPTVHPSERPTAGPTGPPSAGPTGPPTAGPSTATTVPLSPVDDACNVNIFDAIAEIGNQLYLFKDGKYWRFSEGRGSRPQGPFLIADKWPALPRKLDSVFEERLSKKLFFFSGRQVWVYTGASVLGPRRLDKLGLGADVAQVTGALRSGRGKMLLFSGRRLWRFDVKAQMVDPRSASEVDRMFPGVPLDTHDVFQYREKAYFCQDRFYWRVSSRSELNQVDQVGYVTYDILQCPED
Protocol: The measurement of gelatinase activity was based on the detection of non-degraded biotinylated gelatin with a streptavidin-peroxidase conjugate. This test is based on the biotin-avidin method described by Sorbi et al. (25) but modified to a one plate assay (schematically represented in Fig. 1.). Gelatin (1mg/ml) was dissolved in 0.1 M sodium bicarbonate pH 8.3 by heating to 40°C. Biotin-N-hydroxysuccinimide ester was dissolved in dimethylsulfoxide (Me2SO) and was added to the gelatin in a 15-fold molar excess. The mixture was allowed to react overnight at 4°C and the biotinylated gelatin was then dialyzed against phosphate buffered saline (PBS). Neutrophil granulocyte (Neu) medium was collected from human neutrophils after stimulation with lipopolysaccharide (1µg/ml) overnight at 37°C in Minimal Essential Medium. Cells were removed by 10 min centrifugation at 1000 g. Purified gelatinase was obtained by one-step affinity chromatography of neutrophil medium on a gelatin-sepharose column as described (8).
Modified flat bottom 96-well ELISA plates were coated overnight with 0.5 µg/ml avidin in distilled water. The plates were then blocked with 0.3% bovine serum albumin (BSA, Sigma) in PBS for 1 hour at 37°C. Biotinylated gelatin was diluted to 50 µg/ml and 100µl was added to the avidin-coated wells. After incubation for one hour at 20°C, the plate was rinsed with PBS. Medium containing the secreted gelatinases from human neutrophils (dilution range 1/3-1/3^11) and the inhibitors were diluted in incubation buffer (50 mM Tris-HCl pH 7.5, 10 mM CaCl2, 0.02% (W/V) NaN3, 1% (V/V) Triton X-100) and 100 µl of each were mixed. 190 µl of the mixture was added to the gelatin-coated plates and allowed to digest the gelatin overnight at 37°C. The plates were then washed with PBS and each well was incubated with 100 µl peroxidase-conjugated-streptavidin at a 1:2000 dilution for 1 hour at 37°C. After rinsing the plate, the ABTS substrate was added (0.5 mg/ml solution containing 0.1 M citric acid, 0.2 M Na2HPO4, pH 4.3, 0.07 µl/ml 30% H2O2) and the optical density was read at 405 nm after 10 min. incubation at room temperature.
Gelatin is biotinylated and bound to avidin-coated microtiter plates. By addition of gelatinases the number of free biotin groups decreases and proportionally less streptavidin-peroxidase is bound to the residual substrate. Bound streptavidin-peroxidase activity is measured spectrophotometrically by reaction of peroxide with ABTS. Inhibition of gelatinase is obtained by the addition of inhibitor to a known amount of gelatinase prior to application to the plates. The peroxidase activity increases proportionally with the inhibitory activity.
The titration curves of gelatinase inhibition were always related to a blanc curve and this for enzyme concentrations within the slope of the curve (vertical dotted lines Fig. 3). The decrease in enzyme activity to which the inhibitor-incubated sample corresponded was defined as the inhibition factor (IF).
The titration curves of gelatinase inhibition by tetracyclines were always related to a blanc curve and this for enzyme concentrations within the slope of the curve (vertical dotted lines Fig. 3). The decrease in enzyme activity to which the tetracycline incubated sample corresponded was defined as the inhibition factor (IF).

SJL mice = test: acute (hyperacute) experimental allergic encephalomyelitis; details: intraperitoneally, equivalent of 27 to 375 µg per mouse daily (Fig. 15)
Protocol: In both hind paws 50µl of this emulsion was injected on day 0. On day 0 and 2, 50µl B.pertussis (200x10^9 bacteria/ml) were injected intraveneously. […] The control group received injections with 0.9% NaCl, used as excipiens. The animals were daily monitored and the disease and mortality were scored.).

Biozzi AB/H mice = test: chronic relapsing experimental allergic encephalomyelitis; assay type: in vivo; details: 750 µg three times weekly from day 22 onwards, after full-blown disease (Fig. 16)
[2] = system: human monocytic cell line THP-1; test: cellular gelatinase B protein and mRNA production (northern blot, zymography); assay type: cell-based; details: THP-1, LPS 1µg/ml, retinoic acid 100nM or untreated; DPEN 50 µg/ml; 16 h (Fig. 14)
Protocol: Figure 14. […] Cultures of the human monocytic cell line THP-1 were stimulated with lipopolysaccharide (LPS, 1µg/ml), retinoic acid (RA, 100nM) or left untreated (CO) in the presence or absence of D-penicillamine (DPEN, 50 µg/ml). After 16 h total RNA was extracted and gelatinase B mRNA was measured by northern blot analysis with a human probe (41) (a). Gelatinase B protein in the cell culture fluids was assayed by zymographic analysis on gelatin substrate gels (b).

gelatinase B [3] = test: inhibition of homogeneous enzyme (ID50); assay type: biochemical
Gelatinase A = target: T2, Gelatinase A (Homo sapiens, UniProt P08253); test: zymography of cerebrospinal fluid of MS / optic neuritis patients with inhibitor; assay type: biochemical; details: CSF of MS patients, increasing concentrations (Fig. 13)
T2 construct: Gelatinase A and B, detected by zymography in the cerebrospinal fluid of MS patients; from tissue; host or cells: cerebrospinal fluid of patients with multiple sclerosis or optic neuritis
T2 sequence (P08253 110-660): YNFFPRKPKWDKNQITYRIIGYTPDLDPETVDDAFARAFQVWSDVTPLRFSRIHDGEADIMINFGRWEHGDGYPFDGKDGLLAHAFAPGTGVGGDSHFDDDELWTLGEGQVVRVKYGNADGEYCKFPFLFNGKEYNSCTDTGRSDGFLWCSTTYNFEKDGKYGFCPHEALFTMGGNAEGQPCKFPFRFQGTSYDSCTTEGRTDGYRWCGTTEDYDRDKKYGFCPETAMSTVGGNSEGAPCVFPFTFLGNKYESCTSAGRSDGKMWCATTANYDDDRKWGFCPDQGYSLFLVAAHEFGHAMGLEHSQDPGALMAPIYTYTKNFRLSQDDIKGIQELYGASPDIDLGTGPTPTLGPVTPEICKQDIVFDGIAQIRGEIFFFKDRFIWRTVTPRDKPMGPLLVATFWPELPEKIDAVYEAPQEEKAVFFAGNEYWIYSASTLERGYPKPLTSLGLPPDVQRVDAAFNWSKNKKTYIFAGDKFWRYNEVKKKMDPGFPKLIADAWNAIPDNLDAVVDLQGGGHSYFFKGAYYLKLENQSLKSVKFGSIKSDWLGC
Protocol: (§1) Quantitative zymography was performed as described (7,8). Briefly, 40 µl of loading buffer was added to 40 µl of each sample and applied on 7.5% polyacrylamide gels which had been co-polymerised with 0.1% (w/v) gelatin. Stacking gels contained 5% polyacrylamide. The gels were run at 4°C for 16h at 90V. The gels were then incubated in washing buffer (50 mM Tris-HCl pH 7.5, 10mM CaCl2, O.O2% (W/V) NaN3, 2.5% (v/v) Triton X-100) at room temperature, 2x20 min to remove sodium dodecyl sulfate and overnight in developing buffer (50 mM Tris-HCl pH 7.5, 10mM CaCl2, O.O2% (w/v) NaN3, 1% (v/v) Triton X-100) at 37°C. […] The sites of gelatinase activity appeared as unstained bands on a blue background and were quantified by computerised image analysis through scanning densitometry with a PDI scanner (Pharmacia, Belgium) and the PDI software package. […]
(§2) Similar results were obtained when pure preparations of gelatinase B were tested or when gelatinase B was measured in the presence of D-penicillamine in body fluids or cell supernatants.
(§3) Figure 13. […] Gelatinase A (---) and B(_) activities in the CSF were measured by zymography in the absence or the presence of increasing concentrations of D-penicillamine. The scanning indices for each patient are calculated at the residual activity in the presence of inhibitor versus the activity without inhibitor. […]

Gelatinase B [4] = target: T3, Gelatinase B (Homo sapiens, UniProt P14780); test: as above; assay type: biochemical; details: CSF of MS patients, increasing concentrations (Fig. 13)
T3 construct: Gelatinase A and B, detected by zymography in the cerebrospinal fluid of MS patients; from tissue; host or cells: cerebrospinal fluid of patients with multiple sclerosis or optic neuritis
T3 sequence (P14780 94-707): as the sequence (P14780 94-707) above
Protocol: as §1, §2, §3

[5] = target: T1, gelatinase B from neutrophils; test: quantitative gelatin zymography with inhibitor in the developing buffer; assay type: biochemical; parameters: A standard preparation of gelatinase B from neutrophils was repetitiously loaded; endogenous in cells; host or cells: human neutrophils; details: increasing amounts of inhibitor in developing buffer (Fig. 4)
Protocol: Quantitative zymography was performed as described (7,8). Briefly, 40 µl of loading buffer was added to 40 µl of each sample and applied on 7.5% polyacrylamide gels which had been co-polymerised with 0.1% (w/v) gelatin. Stacking gels contained 5% polyacrylamide. The gels were run at 4°C for 16h at 90V. The gels were then incubated in washing buffer (50 mM Tris-HCl pH 7.5, 10mM CaCl2, O.O2% (W/V) NaN3, 2.5% (v/v) Triton X-100) at room temperature, 2x20 min to remove sodium dodecyl sulfate and overnight in developing buffer (50 mM Tris-HCl pH 7.5, 10mM CaCl2, O.O2% (w/v) NaN3, 1% (v/v) Triton X-100) at 37°C. The gels were then stained in Coomassie brilliant blue R-250 and destained in methanol/acetic acid. The sites of gelatinase activity appeared as unstained bands on a blue background and were quantified by computerised image analysis through scanning densitometry with a PDI scanner (Pharmacia, Belgium) and the PDI software package. For inhibition experiments, the inhibitors were dissolved in the developing buffer at the appropriate concentration. […] The enzyme activity was developed by staining of the substrate with Coomassie blue and quantification of the substrate digestion by scanning densitometry. […] The enzyme activity was developed by staining of the substrate with Coomassie blue and quantification of the substrate digestion by scanning densitometry. […]

[6] = tetracycline concentration 1.67 mg/ml
[7] = tetracycline concentration 3.33 mg/ml
[8] = tetracycline concentration 0,83 mg/ml

Molecule | Inhibition factor (IF) [1, 6] | Inhibition factor (IF) [1, 7] | other results
4-epitetracycline HCl | 3 |  | 
7-aminominocycline HCl |  | precipitation | 
Cc1c2c(c(O)c3c(O)cccc13)C(=O)[C@]1(O)C(=O)C(C(N)=O)=C(O)[C@H](N(C)C)[C@@H]1C2 [4-epianhydrotetracycline HCl] |  | precipitation | 
CN(C)[C@H]1C(O)=C(C(N)=O)C(=O)[C@@]2(O)C(O)=C3C(=O)c4c(O)ccc(Cl)c4[C@@](C)(O)[C@H]3C[C@@H]12 [4-epichlortetracycline HCl] |  | precipitation | 
CN(C)c1ccc(O)c2c1C[C@H]1C[C@H]3[C@@H](N(C)C)C(O)=C(C(N)=O)C(=O)[C@@]3(O)C(O)=C1C2=O [4-epiminocycline HCl] |  | 3 | 
CN(C)[C@@H]1C(O)=C(C(N)=O)C(=O)[C@@]2(O)C(O)=C3C(=O)c4c(O)cccc4C[C@H]3C[C@@H]12 [6-deoxy-6-demethyltetracycline HCl] | 5 | 8 | Inhibition factor (IF) [1, 8]: 3
CC(C)(S)[C@@H](N)C(=O)O [D-penicillamine] |  |  | development of disease symptoms (mean disability index), acute EAE (SJL mice): complete blockage; also recorded: inhibits in a dose-dependent way the development of disease symptoms; disease recurrencies (mean clinical score), chronic relapsing EAE (Biozzi AB/H mice): abrogated the disease recurrencies; spontaneous and induced levels of gelatinase B protein and mRNA [2]: remained constant; ID50 (gelatinase B [3]): 3 µg/mL (≈ 20.1 µM); inhibition of Gelatinase A in cerebrospinal fluid (Gelatinase A): inhibited in a dose-dependent way; inhibition of Gelatinase B in cerebrospinal fluid (Gelatinase B [4]): inhibited in a dose-dependent way
CN(C)[C@@H]1C(O)=C(C(N)=O)C(=O)[C@@]2(O)C(O)=C3C(=O)c4c(O)ccc(Cl)c4[C@@](C)(O)[C@H]3C[C@@H]12 [chlortetracycline HCl] | 27 | 45 | Inhibition factor (IF) [1, 8]: 9
CN(C)[C@@H]1C(=O)C(C(N)=O)=C(O)[C@@]2(O)C(=O)C[C@@H]([C@]3(C)OC(=O)c4c(O)ccc(Cl)c43)C[C@@H]12 [isochlortetracycline HCl] |  | 3 | 
C=C1c2cccc(O)c2C(=O)C2=C(O)[C@]3(O)C(=O)C(C(N)=O)=C(O)[C@@H](N(C)C)[C@@H]3[C@@H](O)[C@H]12 [metacycline HCl] | 8 | 27 | Inhibition factor (IF) [1, 8]: 3
CN(C)c1ccc(O)c2c1C[C@H]1C[C@H]3[C@H](N(C)C)C(O)=C(C(N)=O)C(=O)[C@@]3(O)C(O)=C1C2=O [minocycline HCl] | 3 | 8 | inhibition of gelatinase B on zymography [5]: inhibits gelatinase B in a dose-dependent way
CN(C)[C@@H]1C(O)=C(C(N)=O)C(=O)[C@@]2(O)C(O)=C3C(=O)c4c(O)cccc4[C@@](C)(O)[C@H]3C[C@@H]12 [tetracycline HCl] | 3 | 8 | 
α-apooxytetracycline base | 3 | 9 | 
β-apooxytetracycline base |  | 3 | 

Reference: patent publication EP0736302A2, “Protease inhibitors, a DNA construct for the expression of a protease and a process for measuring proteases and/or protease inhibitors” (Stichting REGA V.Z.W., priority 1995, dated 1996)
